Legend:
Type in all cases: in vivo
[1] = system: Balb/c mice; test: Cytokine producing cells in peripheral blood (flow cytometry) after LNIT; conditions: for IL-5/IFN-γ (CD4) / IL-5/IFN-γ (CD8): peripheral blood
Method: (§1) Male Balb/c mice were obtained from the National Laboratory Breeding Research Center in Taiwan and were raised in a specific pathogen-free environment. The mice used were between six and eight weeks of age. Groups of six mice were caged separately according to their treatment.
(§2) Mice were immunized by way of an intraperitoneal (IP) injection of 1 μg/0.1 mL rDp2 emulsified in 4.0 mg/0.062mL aluminum hydroxide Al(OH)3 (Whitehall Lab Ltd. Punchbowl, NSW, Australia) on day 0 and day 7. Following immunization, local nasal immunotherapy (LNIT) was conducted daily from day 14 to day 35 with Dp2 28-40, Dp2 28-40A, FIP alone or FIP mixed with either Dp2 28-40 or Dp2 28-40A (FIP, 50 μg/mouse/day; Dp2 peptide, 1 μg/20 μL) in PBS with 10% glycerol. Normal saline (NS) and irrelevant allergen Bt were used as a negative control. […] On day 28, mice were lightly anesthetized with an IP injection of 60 mg/kg of sodium pentobarbital (Sigma Chemical Co., St Louis, Mo., U.S.A.) and inoculated intratracheally (IT) with 1 μg/50 μL of rDp 2 on day 28 and day 35. Two days subsequent to the second IT inoculation, the mice were sacrificed following the assessment of their pulmonary function (FIG. 1).
Two-color staining methods were used to analyze IFN-γ and IL-5 expression amongst CD4 cells. Leukocytes derived from peripheral blood (PBL) were stimulated with PMA (50 ng/mL), ionomycin (2 μM) and GolgiStop (Cytofix/Cytoperm Plus Pharmingen San Diego, Calif., U.S.A.) for five hours and then washed twice using PBS. The cells were stained with CD4-PerCP, CD8-FITC or IgG1-FITC (PharMingen) at room temperature (RT) for 30 minutes and then washed. Cells were fixed with cytofix/cytoperm at RT for 30 minutes and then stained with anti-cytokine antibody and IgG2a-PE (PharMingen) at RT for 30 minutes and subsequently washed. Both IgG1-FITC and IgG2a-PE were purchased from the same manufacturer as the anticytokine antibodies and the negative controls. Cells were resuspended in 0.5 mL PBS containing 0.1% w/v sodium azide. Mean fluorescence was measured by means of Becton Diskinson flow cytometry (Becton Diskinson, Calif., U.S.A.). A total of 2,000 cells was analyzed for each sample.

[2] = system: Balb/c mice; test: IL-5 and IFN-γ levels in sera and BALF (ELISA) after LNIT; conditions: for IL-5 levels in sera: Example 1, FIG. 3A; for IFN-γ levels in sera: Example 1, FIG. 3B; for IFN-γ / IL-5: Example 2, mean ± SEM, n = 6
Method: as §1, §2
IFN-γ and IL-5 were measured using commercially-available ELISA kits, using a specific mouse monoclonal Ab that recognized different epitopes of the cytokine molecules. The lowest detector range was 10 pg/mL. Given that the BALF was considered to be at too diluted a concentration, IL-4 was not measured.

[3] = system: Balb/c mice; test: Pulmonary function: airway hypersensitivity to methacholine (Penh, barometric plethysmograph) after LNIT; conditions: compared to NS; for Penh after methacholine challenge, early phase: Example 1, FIG. 5A, 30 min after rDp2 IT challenge; for Penh after methacholine challenge, late phase: Example 1, FIG. 5B, 24hrs after rDp2 IT challenge
Method: as §2
Each mouse was placed inside a barometric plethysmograph (Buxco Electronics, Troy, N.Y.). The plethysmograph has two chambers: one is the main or animal chamber (ID 7.5 cm and 5.5 cm height) and the other is the reference chamber (ID 7.5 cm and 3.5 cm height). A differential pressure transducer was employed to detect the pressure difference between the two chambers. The pressure signal was amplified, digitized via an A/D convert card, and sent to a computer with a BioSystem XA program (Buxco, Electronics, Troy, N.Y.), which sampled and calculated the desired respiratory parameters. These parameters were enhanced pause (Penh), tidal volume, breathing frequency, peak inspiratory flow, peak expiratory flow, end-inspiratory pause, and end-expiratory pause.
Aerosol was generated by placing 5 mL of saline or methacholine (Sigma, 1.56 to 25.00 mg/mL) solution in the cup of an ultrasonic nebulizer (DeVilbiss, Somerset, Pa.). It was delivered via a connecting tube and a three-way connector to the animal chamber of the plethysmograph (Hamelmann E, et al. Am J Respir Crit Care Med. 1997;156:766-75). The median size of the aerosol was approximately 3 μm and the range of the sizes was from 1 to 5 μm, according to the manufacturers information. The aerosol usually filled the chamber within 15-20 sec. At first, each mouse inhaled saline aerosol for 3 min. Then the respiratory parameters were measured for 3 min. Then, inhalation of the saline aerosol was replaced by inhalation of the aerosol of methacholine solution for 3 min. In both cases, the aerosol in the chamber was cleared immediately after the exposure. Respiratory parameters were then measured for 3 min following the inhalation of methacholine. A dose-response curve for methacholine was calculated starting from a low dose of 0.031 mg/dL and moving to a higher dose of 25 mg/dL. There was a 15 min interval between exposures. The percentage changes of Penh obtained from each dose of mechacholine were accumulated area under the curve and the values were calculated as means±SEM. Differences in parameters among groups were analyzed by variance.

[4] = Example 1, percentage of positive stained cells in the PBMC of six mice
[5] = Example 1, ratio of IL-5 to IFN-γ producing CD4 cells
[6] = Example 1, ratio of IL-5 to IFN-γ producing CD8 cells
[7] = Example 2, percentage of total leukocytes in the peripheral blood of six mice

Molecule	CD4^+ [1, 4] [percentage]	CD8^+ [1, 4] [percentage]	IFN-γ^+/CD4^+ [1, 4] [percentage]	IFN-γ^+/CD8^+ [1, 4] [percentage]	IL-5^+/CD4^+ [1, 4] [percentage]	IL-5^+/CD8^+ [1, 4] [percentage]	IL-5/IFN-γ (CD4) [1, 5]	IL-5/IFN-γ (CD8) [1, 6]	IL-5 levels in sera ([2]; compared to NS treated mice)	IFN-γ levels in sera ([2]; compared to NS treated mice)	Penh after methacholine challenge, early phase [3]	Penh after methacholine challenge, late phase [3]	further results
Dp2 28-40A: altered TCR ligand of Dp2 28-40, residues at positions 34 and 36 substituted by alanine; amino acid sequence ID No. 2 (IIHRGKAFALEAV; listed as Dermatophoides pteronyssinus)	51.8	10.7	11.4	5.8	11.4	3.5	1.0	0.6	decreased	Significantly increased	significantly decreased	significantly decreased	
Dp2 28-40: Dermatophoides pteronyssinus group 2 (Dp2) epitope peptide, residues 28-40, amino acid sequence ID No. 1 (IIHRGKPFQLEAV; listed as Dermatophoides pteronyssinus)	56.0	9.8	27.8	16.8	17.7	9.5	0.6	0.6	decreased	Significantly increased	significantly decreased	significantly decreased	IL-5 levels in BALF ([2]; Example 1, FIG. 3C, compared to NS treated mice): significant reduction; IFN-γ levels in BALF ([2]; Example 1, FIG. 3D, compared to NS treated mice): significant increase
FIP: fungal immunomodulatory protein isolated from Flammalina velutipes, amino acid sequence ID No. 3 (protein, Flammalina velutipes) SATSLTFQLAVLVKKIDFDYTPNWGRGTPSSYIDNLTFPKVLTDKKYSYRVVVNGSDLGVESNFAVTPSGGQTINFLQYNKGYGVADTKTIQVFVVIPDTGNSEEYIIAEWKKT													CD4 [1, 7]: 29.1 percentage; CD8 [1, 7]: 7.0 percentage; IFN-γ^+/CD4^+ [1, 7]: 13.7 percentage; IFN-γ^+/CD8^+ [1, 7]: 5.0 percentage; IL-5^+/CD4^+ [1, 7]: 12.6 percentage; IL-5^+/CD8^+ [1, 7]: 8.4 percentage; IL-5/IFN-γ (CD4) ([1]; Example 2, ratio, CD4 cells): 0.9; IL-5/IFN-γ (CD8) ([1]; Example 2, ratio, CD8 cells): 1.7; IFN-γ ([2]; BALF): 8.3 ± 0.4 pg/mL; IL-5 ([2]; BALF): 19.3 ± 1.9 pg/mL; IFN-γ ([2]; Sera): 52.0 ± 1.9 pg/mL; IL-5 ([2]; Sera): 77.6 ± 1.9 pg/mL; penh, early phase ([3]; Example 2, FIG. 8A, 30 min after rDp2 intratracheal challenge): significantly decreased; penh, late phase ([3]; Example 2, FIG. 8B, 24 hr): did not reach a statistically significant level
